Reference: patent US20250127689A1, “METHOD OF STIMULATING DENTIN FORMATION WITH HYDROXY-SUBSTITUTED AZOBENZENE MATERIALS” (The Regents of the University of Colorado, a body corporate, priority 2022, published 2025)

Columns and labels:
[1] = tested on: exposed dental pulp of maxillary first molar; experiment: Pulp exposure (class I cavity) in maxillary first molar, H&E histology of sections four weeks after treatment; assay type: in vivo, C57BL/6J mice; conditions: mice
Protocol: (§1) In order to test this hypothesis, a class I cavity extending into the dentin and almost to the pulp was prepared on the occlusal surface of the maxillary first molar after anesthesia in five to six week old C57BL/6J mice. The cavity was prepared using a 0.3-0.5 millimeter diameter carbide bur. An endodontic hand file with a tip diameter of 0.06-0.10 millimeter was used to create a mechanical break in the thin dentin overlying the dental pulp, thereby creating a cavity that included exposed dentin and exposed pulp.
(§2) For the control group of mice, after hemostasis, a one-step, dual-cure, self-etching bonding agent (SCOTCHBOND™ Universal Adhesive; 3M ESPE, St. Paul, Minnesota, USA) was applied to exposed dentin according to the manufacturer's instructions and cured for 20-40 seconds using a dental curing light operated at 420-480 nanometers and 1200-2000 milliwatts/centimeter^2. ProRoot™ MTA (Mineral Trioxide Aggregate) root canal repair material (Dentsply Sirona, Tulsa Dental Specialties, Johnson City, Tennessee, USA) was prepared according to manufacturer's instructions by mixing powder and liquid components in equal proportions to form a dough. The dough was packed over the exposed pulp according to manufacturer's instructions. The cavity was then sealed with FILTEK™ Supreme Ultra Universal Restorative (3M ESPE, St. Paul, Minnesota, USA), which was applied to the cured adhesive and the root canal repair material, then cured for 20-40 seconds using a dental curing light operated at 420-480 nanometers and 1200-2000 milliwatts/centimeter^2.
For the test group of mice, after hemostasis, a one-step, dual-cure, self-etching bonding agent (SCOTCHBOND™ Universal Adhesive; 3M ESPE, St. Paul, Minnesota, USA) was applied to exposed dentin according to the manufacturer's instructions and cured for 20-40 seconds using a dental curing light operated at 420-480 nanometers and 1200-2000 milliwatts/centimeter^2. Prior to being applied, the AHA solution was divided into two parts of equal volume to mix in the photoinitiators and the redox (self-cure) initiator components. […]

[2] = tested on: exposed dental pulp of maxillary first molar; experiment: Pulp exposure (class I cavity) in maxillary first molar, microCT of maxilla six weeks after treatment; assay type: in vivo, C57BL/6J mice; conditions: mice, six weeks after dental procedure; longitudinal section, cured restorative removed before imaging
Protocol: as §1
as §2, with “The cavity was then sealed with FILTEK™ Supreme Ultra Universal Restorative (3M ESPE, St. Paul, Minnesota, USA), which was applied to the cured adhesive and the root canal repair material, then cured for 20-40 seconds using a dental curing light operated at 420-480 nanometers and 1200-2000 milliwatts/centimeter^2.” left out

In the case of `C=CC(=O)Oc1ccccc1N=Nc1ccccc1O` [AHA, 2-Acryloyloxy-2′-hydroxy-azobenzene], the “appearance of gingiva around the site of application (inflammation, dysplasia)” value [1] is reported as “healthy without any signs of inflammation or dysplasia”, the “formation of dentinal bridge at the site of pulp exposure (H&E stained sections)” value ([1]; 2.5 to 12.5 micrograms AHA per restoration applied to exposed pulp, light-cured under FILTEK restorative) is reported as “closed by formation of a dentinal bridge generated by reparative dentin formation” and the “state of dental pulp by microscopy (vitality, inflammation, dysplastic changes)” value ([1]; H&E sections) is reported as “vital pulp without any evidence of chronic or acute inflammation or dysplastic changes”. The “formation of a calcified dentinal bridge at the pulp exposure site (microCT)” value [2] was “pulp exposure site closed by a calcified dentinal bridge”.
